Measured values reported in the CheMixHub viscosity set.

Assay: xn = mol fraction of the nth substance listed

CCCC(C)O (configuration not stated) + Cc1ccccc1
viscosity [mPa·s], 101 kPa
Settings	x1 = 0.1002	x1 = 0.1998	x1 = 0.2999	x1 = 0.3994	x1 = 0.5004	x1 = 0.6006	x1 = 0.6993	x1 = 0.8004	x1 = 0.8998
303.15 K	0.5378	0.5727	0.629	0.6912	0.7892	0.9188	1.129	1.428	1.926
308.15 K	0.5072	0.5384	0.5879	0.6416	0.7284	0.836	1.012	1.259	1.656
313.15 K	0.4802	0.5063	0.5503	0.5965	0.6696	0.7628	0.9099	1.114	1.435
318.15 K	0.4548	0.4776	0.517	0.5583	0.6236	0.7009	0.8268	0.9944	1.26
323.15 K	0.4322	0.4524	0.4862	0.5226	0.5786	0.6466	0.7539	0.8904	1.11

CCOC(=O)C(=O)OCC + Cc1ccccc1
viscosity [mPa·s], 101 kPa
Settings	303.15 K	313.15 K	323.15 K
x1 = 0.0804	0.5603	–	–
x1 = 0.1006	0.581	0.516	0.465
x1 = 0.1644	0.5912	–	–
x1 = 0.2019	0.651	0.578	0.514
x1 = 0.2523	0.6413	–	–
x1 = 0.3013	0.725	0.646	0.571
x1 = 0.3443	0.7072	–	–
x1 = 0.4005	0.811	0.712	0.628
x1 = 0.4403	0.7809	–	–
x1 = 0.502	0.907	0.788	0.691
x1 = 0.5414	0.8798	–	–
x1 = 0.6024	1.028	0.887	0.77
x1 = 0.6481	1.007	–	–
x1 = 0.6988	1.151	0.988	0.855
x1 = 0.7597	1.167	–	–
x1 = 0.7971	1.289	1.095	0.943
x1 = 0.8762	1.38	–	–
x1 = 0.8936	1.442	1.222	1.044

COCCO + Cc1ccccc1
viscosity [mPa·s]
Settings	298.15 K	303.15 K	308.15 K
101 kPa, x1 = 0.0586	0.571	–	0.512
101 kPa, x1 = 0.1696	0.617	–	0.545
101 kPa, x1 = 0.2421	0.654	–	0.571
101 kPa, x1 = 0.3513	0.719	–	0.618
101 kPa, x1 = 0.4555	0.796	–	0.674
101 kPa, x1 = 0.4987	0.833	–	0.7
101 kPa, x1 = 0.5515	0.882	–	0.736
101 kPa, x1 = 0.6515	0.99	–	0.814
101 kPa, x1 = 0.7487	1.118	–	0.905
101 kPa, x1 = 0.8495	1.279	–	1.021
101 kPa, x1 = 0.9558	1.49	–	1.17
101.33 kPa, x1 = 0.1311	–	0.566	–
101.33 kPa, x1 = 0.2283	–	0.608	–
101.33 kPa, x1 = 0.3137	–	0.645	–
101.33 kPa, x1 = 0.4277	–	0.716	–
101.33 kPa, x1 = 0.5253	–	0.784	–
101.33 kPa, x1 = 0.6244	–	0.87	–
101.33 kPa, x1 = 0.7116	–	0.954	–
101.33 kPa, x1 = 0.8018	–	1.057	–
101.33 kPa, x1 = 0.9149	–	1.219	–

CC(=O)OCC(C)C + Cc1ccccc1C
viscosity [mPa·s], 101 kPa
Settings	x1 = 0.0918	x1 = 0.1798	x1 = 0.2716	x1 = 0.3504	x1 = 0.4528	x1 = 0.5735	x1 = 0.6718	x1 = 0.7786	x1 = 0.8691	x1 = 0.9514
303.15 K	0.694	0.688	0.681	0.675	0.667	0.659	0.653	0.648	0.644	0.641
313.15 K	0.613	0.606	0.6	0.595	0.59	0.585	0.582	0.58	0.578	0.58
